Entries after “also recorded” stand apart in the source; their conditions may differ. Values belong to the molecule of their own block, whether it stands above or below them.
What was measured:
[1] = system: UV-induced lipid peroxidation; test: UV/liposomal assay of anti-oxidant activity after storage for five years at ambient temperatures; format: biochemical; settings: for Inhibition: average of two separate assays performed in duplicate; for retention of antioxidant activity on storage: dry powder form, ambient temperatures, five years
Protocol: The tocopherol sample used in this assay was freshly prepared and stored under argon gas in a sealed amber ampoule at -20° C. […] In contrast, the tocopherol-cysteamine samples used in the assay were stored in dry powder form at ambient temperatures for more than five years. […] In particular, several materials, including two batches of tocopherol-cysteamine, were tested for anti-oxidant activity using a UV/liposomal assay. The results reported below represent the average of two separate assays performed in duplicate.

[2] = system: UV-induced lipid peroxidation; test: in vitro liposomal/UV assay, inhibition of UV-induced lipid peroxidation; format: biochemical
Protocol: The antioxidant potential and stability of equimolar concentrations of tocopherol-cysteamine, cysteamine, and a α-tocopherol were compared using an in vitro liposomal/UV assay. This assay provides an effective means of measuring an antioxidant's potential to inhibit UV-induced lipid peroxidation which may correlate with the antioxidant's inhibition of free radical generation in the skin. […] The antioxidant contribution of cysteamine to the derivative was tested by measuring cysteamine alone and determined to be 20.1%.

[3] = system: lipid peroxidation, human skin; test: clinical study, lipid peroxides in ethanol washes of ventral forearms after topical cream; format: in vivo; settings: for average level of peroxides, 500 mJ/cm^2 + Ao: UVB 500 mJ/cm^2; for average level of peroxides, 0 + Ao: not irradiated
Protocol: A clinical study was undertaken in order to measure the effectiveness of topically applied compositions containing tocopherol-cysteamine on human skin. Protection against lipid peroxidation was used as a biological marker in a study of twenty subjects.
A cream containing 0.10% tocopherol-cysteamine and other antioxidants was prepared using the batch formulation of Table III.
The cream containing 0.10% tocopherol-cysteamine was applied by the panelists to their left ventral forearms twice daily. The same cream formulation without any antioxidants was used as the control and applied to the right ventral forearms. At 0, 4, 8 and 12 weeks, ethanol washes were taken and samples aliquoted for endogenous levels of lipid peroxides, susceptibility to lipid peroxidation by UVB irradiation at 500 mJ/cm^2, and lipid analysis.

[4] = cited from earlier work
[5] = ambient temperatures, over a period of one week; cited from earlier work
[6] = week 0, cream 0.10% tocopherol-cysteamine and other antioxidants
[7] = week 4, cream 0.10%, twice daily
[8] = week 8, cream 0.10%, twice daily
[9] = week 12, cream 0.10%, twice daily

stability compared with α-tocopherol ([1]; storage at ambient temperatures): considerably more stable
SMILES: Cc1c(C)c2c(c(C)c1O)CCC(C)(C(=O)NCCS)O2 (stereo not drawn) [Tocopherol-cysteamine]
activity of 5 year-old vs new batch ([1]; 0.010%, 5 year-old vs new batch): very similar
Inhibition ([1]; 5 year-old, 0.010%): 57.3%
retention of antioxidant activity on storage [1]: did not lose significant antioxidant activity over this five year period
retention of antioxidant activity on storage ([1]; listed as tocopheryl-cysteamine): does not lose any significant anti-oxidant activity
Inhibition ([1]; new batch, 0.010%): 65.6%
% Inhibition (UV-induced lipid peroxidation) ([2]; 0.18 mM): 67.3%
antioxidant activity vs α-tocopherol and cysteamine assays combined ([2]; equimolar, 0.18 mM): greater than that activity observed in both the α-tocopherol and cysteamine assays combined
average inhibition of UV-induced lipid peroxidation, previous experiments ([2]; triplicate samplings assayed in duplicate): 65.2% (+/-3.61)
amount of endogenous peroxides, week 8 vs week 0 ([3]; 8 weeks vs 0 time point, p value less than 0.1): significant decrease
amount of peroxides generated by UVB, week 8 vs week 0 ([3]; 8 weeks vs 0 time point, p<0.01, t test): significant decrease
average values vs untreated samples, 12 weeks ([3]; 12 week time point, control and irradiated preparations): lower than the untreated samples
peroxide levels after irradiation over the course of treatment ([3]; irradiated, treated arms): decreased over the course of treatment
average endogenous peroxide levels over time ([3]; treated but not irradiated): decreased over time
average level of peroxides, 500 mJ/cm^2 + Ao [3, 6]: 17.69
average level of peroxides, 0 + Ao [3, 6]: 9.10
average level of peroxides, 500 mJ/cm^2 + Ao [3, 7]: 12.95
average level of peroxides, 0 + Ao [3, 7]: 8.19
average level of peroxides, 500 mJ/cm^2 + Ao [3, 8]: 10.33
average level of peroxides, 0 + Ao [3, 8]: 6.56
average level of peroxides, 500 mJ/cm^2 + Ao [3, 9]: 26.67
average level of peroxides, 0 + Ao [3, 9]: 21.19

SMILES: Cc1c(C)c2c(c(C)c1O)CCC(C)(C(=O)O)O2 (stereo not drawn) [Trolox-C, 6-hydroxy-2,5,7,8-tetra-methylchroman-2-carboxylic acid]
antioxidant activity vs α-tocopherol and other commercial food antioxidants (butylated hydroxytoluene, butylated hydroxyanisole) ([4]; Schaal thin layer oven and AOM tests): greater antioxidant activity than α-tocopherol and other commercial food antioxidants
antioxidant effectiveness in vegetable oils and animal fats ([4]; vegetable oils and animal fats): extremely effective antioxidant

SMILES: Cc1c(C)c2c(c(C)c1O)CCC(C)(CCCC(C)CCCC(C)CCCC(C)C)O2 (stereo not drawn) [Tocopherol, α-Tocopherol]
loss of antioxidant potency on storage [5]: lose its antioxidant potency, and in fact become a pro-oxidant; also recorded: gradually lose antioxidant potency and become a prooxidant
% Inhibition (UV-induced lipid peroxidation) ([2]; 0.18 mM): 28.9%

SMILES: NCCS [Cysteamine, cysteamine, reference compound]
% Inhibition (UV-induced lipid peroxidation) ([2]; 0.18 mM): 20.1%

Reference: US5811083A, “Tocopherol derivatives for use in cosmetic compositions” (Estee Lauder, Inc., priority 1996, dated 1998)
